Measured values published in BindingDB's records for patent US20230303513 (Bristol-Myers Squibb, 2023).

Assays:
fMet-Leu-Phe receptor = biological target: T1, fMet-Leu-Phe receptor (Homo sapiens, UniProt P21462); experiment: cAMP Assay
T1 sequence (P21462 whole entry): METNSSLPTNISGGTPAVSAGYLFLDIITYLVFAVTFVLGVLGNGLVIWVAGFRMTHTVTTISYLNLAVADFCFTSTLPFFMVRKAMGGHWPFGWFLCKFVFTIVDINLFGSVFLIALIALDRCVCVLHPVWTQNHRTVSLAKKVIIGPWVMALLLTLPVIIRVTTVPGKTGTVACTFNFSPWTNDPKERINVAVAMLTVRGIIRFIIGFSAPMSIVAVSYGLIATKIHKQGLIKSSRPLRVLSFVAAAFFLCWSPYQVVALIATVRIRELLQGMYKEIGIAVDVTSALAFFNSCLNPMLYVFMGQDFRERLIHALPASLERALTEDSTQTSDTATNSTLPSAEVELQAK
Method: (§1) FPR2 and FPR1 Cyclic Adenosine Monophosphate (cAMP) Assays were used to measure the activity of the compounds in this patent. FPR2 and FPR1 Cyclic Adenosine Monophosphate (cAMP) Assays. A mixture of forskolin (5 μM final for FPR2 or 10 μM final for FPR1) and IBMX (200 μM final) were added to 384-well Proxiplates (Perkin-Elmer) pre-dotted with test compounds in DMSO (1% final) at final concentrations in the range of 0.020 nM to 100 μM. Chinese Hamster Ovary cells (CHO) overexpressing human FPR1 or human FPR2 receptors were cultured in F-12 (Ham's) medium supplemented with 10% qualified FBS, 250 μg/ml zeocin and 300 μg/ml hygromycin (Life Technologies). Reactions were initiated by adding 2,000 human FPR2 cells per well or 4,000 human FPR1 cells per well in Dulbecco's PBS (with calcium and magnesium) (Life Technologies) supplemented with 0.1% BSA (Perkin-Elmer). The reaction mixtures were incubated for 30 min at room temperature. The level of intracellular cAMP was determined using the HTRF HiRange cAMP assay reagent kit (Cisbio) according to manufacturer's instruction. Solutions of cryptate conjugated anti-cAMP and d2 flurorophore-labelled cAMP were made in a supplied lysis buffer separately. Upon completion of the reaction, the cells were lysed with equal volume of the d2-cAMP solution and anti-cAMP solution.

[1] = biological target: T2, N-formyl peptide receptor 2 (Homo sapiens, UniProt P25090); experiment: cAMP Assay
T2 sequence (P25090 whole entry): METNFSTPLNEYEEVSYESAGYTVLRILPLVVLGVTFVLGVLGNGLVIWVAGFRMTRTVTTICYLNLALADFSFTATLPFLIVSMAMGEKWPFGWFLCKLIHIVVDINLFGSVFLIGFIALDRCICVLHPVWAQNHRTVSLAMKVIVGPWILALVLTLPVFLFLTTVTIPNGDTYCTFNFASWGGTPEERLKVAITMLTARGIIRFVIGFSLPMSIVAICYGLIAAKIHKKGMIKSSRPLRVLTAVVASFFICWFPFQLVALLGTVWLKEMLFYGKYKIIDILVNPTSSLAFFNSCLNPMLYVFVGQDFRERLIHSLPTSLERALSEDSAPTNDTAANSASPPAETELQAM
Method: as §1

| SMILES | EC50 (fMet-Leu-Phe receptor) [nM] | EC50 [1] [nM] |
| --- | --- | --- |
| COCCn1cccc(N2C[C@@H](c3ccc(Cl)cc3)[C@H](NC(=O)NC3CCc4cc(OC)ccc4C3)C2=O)c1=O (some centres undefined) [US20230303513, Example 55] | > 10000 | 6.2 |
| COCC(CO)n1cccc(N2C(=O)[C@@H](NC(=O)N[C@H]3CC[C@H](C(F)F)CC3)[C@H](c3c(F)cc(OC)cc3F)[C@@H]2C)c1=O (some centres undefined) [US20230303513, Example 63] | 3600 | 41 |
